The conditions of data set [1]: cited from earlier work.
Data set [2] concerns ischemic skin flap. The data set is described as follows: Skin flap tissue perfusion, sodium fluorescein injection and IVIS imaging. The data set is classed as in vivo, rat. The note with it: postoperative day 7; for percentage of unperfused tissue: intraperitoneal + topical, control 39.9±3.8 percent; for percentage of unperfused tissue / percentage of overall flap perfusion: p<0.001; for percentage of overall flap perfusion: control 31.4±2.3 percent. The procedure: (§1) After institutional animal care and use committee approval, hairless male rats (8 weeks old; 250 g) were obtained from Charles River Laboratories (Wilmington, Mass.). Six experimental groups of rats (n=24) and three control groups (n=12) underwent skin flap surgery by surgeons blinded to the experimental treatment arm. First, to assess both systemic and topical administration together, four experimental groups (n=16) were administered dimethyloxalylglycine (Cayman Chemical, Ann Arbor, Mich.) both intraperitoneally and topically for a total dose of 6 mg/kg/day (n=4), 12 mg/kg/day (n=4), 24 mg/kg/day (n=4), or 48 mg/kg/day (n=4). Next, to assess topical versus intraperitoneal administration, two experimental groups were administered dimethyloxalylglycine at 48 mg/kg/day either topically (n=4) or intraperitoneally (n=4). Intraperitoneal administration consisted of dimethyloxalylglycine suspension in phosphate-buffered saline (pH 7.4) to a maximum dosage of 10 ml/kg. Topical delivery consisted of administration of dimethyloxalylglycine using dimethylsulfoxide as a delivery vehicle at a maximum dosage of 9 ml/kg undiluted solution. Topical application was performed in the outline of the proposed skin flap. To replicate a short therapeutic course before and after flap surgery, the study was designed to include a 14-day treatment period, with dimethyloxalylglycine administered 7 days before and 7 days after flap surgery (FIG. 1). Because prolyl hydroxylase inhibitors target the HIF pathway […], this design was chosen to allow time for downstream neovascularization.
(§2) Throughout the same 14-day treatment course, control groups were administered an equal volume of intraperitoneal phosphate-buffered saline (pH 7.4) and topical dimethylsulfoxide. A dorsal pedicle skin flap based on the McFarlane model measuring 3×6 cm was elevated in the areolar tissue plane deep to the panniculus carnosus layer on each rat on treatment day 7. Consistency in flap design was ensured using a model outline for size and shape and positioning according to bony landmarks. After flap elevation, the flap was sutured in place with 4-0 polypropylene. Surgeons were blinded intraoperatively to treatment arm with a random numbers scheme. Seven days after surgery, the animals were euthanized and histologic analysis performed in postmortem tissue specimens.
(§3) Photographic measurements of necrosis were taken on postoperative days 1, 3, and 7. Flap necrosis was determined grossly by the presence of cyanosis and congestion on postoperative day 1 (FIG. 2) and the presence of scab formation and loss of skin elasticity on subsequent postsurgical days. At 7 days, tissue perfusion was assessed by means of intraperitoneal injection of 1 ml of sodium fluorescein 10% at 60 mg/kg and fluorescent imaging with an in vivo imaging system (IVIS Kinetic; PerkinElmer, Waltham, Mass.) using LIVING IMAGE® software with a 465-nm excitation and green fluorescent protein emission filter. Necrotic area was calculated using ImageJ Software (National Institutes of Health, Bethesda, Md.). Digital photographs and IVIS images were evaluated and analyzed by an investigator blinded to the assigned treatment group.

Data set [3] in a line: Complete blood counts after 14 total days of treatment. The class given is in vivo, rat. The procedure:
(§4) The animals were treated according to institutional animal care and use committee guidelines. Animals were double-housed for the preoperative period, then single-housed in the immediate postoperative period to protect flap integrity. Isoflurane anesthesia was used for all operations and daily intraperitoneal injections. Elizabethan collars were placed on rats to prevent ingestion of the topical solution after application. No dressing was used over the topical application site due to absorption. Animals were observed daily for side effects, including wound infections or dehiscence. Weights were taken on the day of surgery and on postoperative day 7. Blood samples were obtained on postoperative day 7 immediately before the animals were euthanized by means of cardiac puncture to determine hemoglobin, hematocrit, white blood cell count, and platelet count. Animals were euthanized by means of intracardiac potassium chloride on postoperative day 7, and gross necropsies were performed by a veterinarian to assess macroscopic organ changes after 14 total days of treatment.

The nature of data set [4]: Side effect monitoring, weights and gross necropsy. The class given is in vivo, rat. The procedure:
as §4

Another data set deals with apoptotic cells. The data set can be described thus: Apoptosis by terminal deoxynucleotidyl transferase-mediated dUDP end-labeling staining of skin flap. The class given is in vivo, rat. The conditions noted are these: 20× magnification, 4 cm from the proximal flap; control 15.1±6.2; p=0.045. The procedure: (§5) Tissues from the proximal and distal parts of the flaps were collected on postoperative day 7 and were fixed in 10% paraformaldehyde and embedded in paraffin, with representative sections depicted in FIG. 1. For histologic evaluation and CD31 immunohistochemical staining, sections taken 6 cm from the proximal flap were deparaffinized in xylene and rehydrated in a series of ethanol washes. For detection of CD31+ cells, sections were incubated with anti-mouse CD31 antibody (BD Pharmingen, San Jose, Calif.) at a dilution of 1:200 at 4° C. overnight. For analysis of angiogenesis, the CD31+ vessels in five fields were counted by light microscopy (20×) for each group. A TdT In Situ Cell Death Detection Kit (R&D Systems, Minneapolis, Minn.) was used to compare apoptotic protein expression in sections taken 4 cm from the proximal flap. The ratio of terminal deoxynucleotidyl transferase-mediated dUDP end-labeling-positive cells was calculated according to the manufacturer's protocol. Terminal deoxynucleotidyl transferase-mediated dUDP end-labeling-positive cells were also counted by light microscopy (20×) in 10 fields.

Data set [5] relates to ischemic skin flap. The data set can be described thus: Skin flap necrosis, rat ischemic dorsal pedicle skin flap (McFarlane) model. The data set is classed as in vivo. The note with it: for mean percentage of skin flap necrosis: postoperative day 3; for mean percentage of skin flap necrosis / flap necrosis: intraperitoneal + topical; for mean percentage of skin flap necrosis / postsurgical flap necrosis percentage: control 41.3±3.8 percent; for flap necrosis: postoperative day 7; for flap necrosis / percentage of flap necrosis: control 50.9±3.9 percent; for postsurgical flap necrosis percentage: postsurgical day 3; for percentage of flap necrosis: postsurgical day 7. The procedure:
as §1, §2, §3

A further data set relates to CD31+ vessels. The data set can be described thus: Neovascularization: CD31 immunohistochemistry and hematoxylin and eosin histology of skin flap. The data set is classed as in vivo, rat. The procedure:
as §5

A further data set has as its system VEGF. The data set is described as follows: Tissue VEGF concentration by enzyme-linked immunosorbent assay. The conditions noted are these: skin flap 6 cm from the proximal flap, postoperative day 7; control 22.0±1.7 pg/ml; p=0.007. The class given is in vivo, rat. The procedure: Tissue samples were harvested on postoperative day 7 and dissected on ice, submerged in liquid nitrogen, then stored at −80° C. Tissue samples from tissue sections taken at the same distance 6 cm from the proximal flap were then homogenized in lysis buffer containing 100 mM Tris hydrochloride (pH 7.4), 150 mmol sodium chloride, 1% Triton X-100, 0.5% sodium deoxycholate, and 1 μg/ml protease inhibitor cocktail (Sigma Aldrich, St. Louis, Mo.). The samples were centrifuged to pellet the debris, and the supernatants were analyzed following the manufacturer's protocol for a rat tissue extract VEGF enzyme-linked immunosorbent assay kit (Sigma-Aldrich).

For another data set, the system named is HIF-1α. The data set can be described thus: HIF-1α immunohistochemistry of skin flap epidermis. The data set is classed as in vivo, rat. The conditions noted are these: 4 cm from the proximal flap, postoperative day 7, control 3.5±0.6, p<0.001. The procedure:
For analysis of HIF-1α, sections were taken 4 cm from the proximal flap and incubated with anti-rabbit HIF-1α antibody (Novus Biologicals, Littleton, Colo.) at a dilution of 1:1600. A Discovery Ultra immunohistochemical system (Ventana Medical Systems, Oro Valley, Ariz.) was used for staining with OmniMap anti-Rb horseradish peroxidase and red chromogen was used for detection. HIF-1α-positive nuclei in the epidermis were counted by light microscopy (20×) in five fields. All immunohistochemical measurements were performed by a blinded investigator.

“Also recorded” adds a separate entry of the source.

`O=c1c(-n2ccnn2)c[nH]n1-c1cc(N2CCOCC2)ncn1` [Molidastat]: in [1], the “most common adverse effect in clinical trials” value was “hypertension resulting from polycythemia”.
Turning to `O=C(O)CNC(=O)c1ncc(-c2cccc(Cl)c2)cc1O` [Vadadustat], in data set [1], the “most common adverse effect in clinical trials” value is reported as “hypertension resulting from polycythemia”.
Take `COC(=O)CNC(=O)C(=O)OC` [dimethyloxalylglycine]: the “dose dependence of tissue perfusion” value in the data set on ischemic skin flap [2] (6 to 48 mg/kg/day) is given as “higher dimethyloxalylglycine doses leading to increased tissue perfusion”. In addition, the “percentage of unperfused tissue” value in the data set on ischemic skin flap [2] (total 6 mg/kg/day) is 11.4±1.7%; in the data set with ischemic skin flap [2] (total 12 mg/kg/day), 9.4±4.2%; in the data set on ischemic skin flap [2] (total 24 mg/kg/day), 4.7±2.6%; with ischemic skin flap [2] (total 48 mg/kg/day) it was 1.4±0.9%. Also, the “percentage of overall flap perfusion” value with ischemic skin flap [2] (intraperitoneal alone 48 mg/kg/day) amounted to 7.2±3.8%; with ischemic skin flap [2] (topical alone 48 mg/kg/day), 6.9±1.3%. Further, the mean hemoglobin in data set [3] (control 15.1±0.5 g/dl, p=0.3) amounted to 14.2 ± 1.0 g/dL. The “mean white blood cell count” value in [3] (control 18.2±5.6×10^3/p1, p=0.08) was 10.4±1.6 ×10^3/p1. The compound also registered a hematocrit in [3] (control 43.3±1.1 percent, p=0.2) of 40.8±2.6%. Besides, the platelet count in data set [3] (control 1446±218×10^9/liter, p=0.8) was 1510±247 ×10^9/liter. In addition, the gross necropsy findings result in data set [4] (after 14 total days of treatment) is given as “no evidence of cardiovascular changes, splenomegaly, or polycythemia; also recorded: no macroscopic organ changes were observed”. For the same compound, the “weights versus control animals” value in data set [4] (experimental day 1 or day 14, all doses) was “no differences”. The “wound infections, dehiscence, behavioral changes in feeding or activity” value in [4] (rat, in vivo) is reported as “No wound infections, dehiscence, or behavioral changes in feeding or activity were observed”. The “number of apoptotic cells per high-power field” value in the data set on apoptotic cells was found to be 1.7±0.6. Moreover, the cyanosis of flaps entry in the data set with ischemic skin flap [5] (postoperative day 1, treated versus control flaps (FIG. 2: 24 mg/kg/day intraperitoneal and topical)) was “Decreased cyanosis”. The “mean percentage of skin flap necrosis” value in the data set on ischemic skin flap [5] (total 6 mg/kg/day, p=0.13) is on record as 30.2±3.9%; in the data set with ischemic skin flap [5] (total 12 mg/kg/day, p=0.001), 12.3±4.5%; in the data set with ischemic skin flap [5] (total 24 mg/kg/day, p=0.008), 20.3±1.8%; with ischemic skin flap [5] (total 48 mg/kg/day, p<0.001), 7.7±3.1%. Further, the flap necrosis is reported as 26.7±1.3% with ischemic skin flap [5] (total 6 mg/kg/day, p=0.004); 20.6±7.0% with ischemic skin flap [5] (total 12 mg/kg/day, p=0.002); 25.0±2.5% with ischemic skin flap [5] (total 24 mg/kg/day, p=0.003); 11.6±4.4% in the data set with ischemic skin flap [5] (total 48 mg/kg/day, p<0.001). The “postsurgical flap necrosis percentage” value came to 14.7±2.6% in the data set with ischemic skin flap [5] (intraperitoneal alone 48 mg/kg/day, p=0.002) and 18.9±2.8% in the data set on ischemic skin flap [5] (topical alone 48 mg/kg/day, p=0.005). Also, the “percentage of flap necrosis” value in the data set on ischemic skin flap [5] (intraperitoneal alone 48 mg/kg/day, p<0.001) came out at 16.3±5.2%; with ischemic skin flap [5] (topical alone 48 mg/kg/day, p=0.003), 25.7±2.3%. In addition, the “increase in flap viability” value with ischemic skin flap [5] (topical application and intraperitoneal administration) was “nearly threefold increase”. Besides, the “number of CD31-labeled vessels” value in the data set with CD31+ vessels (per high-power field at 20×, 6 cm from the proximal flap, after 14 total days of treatment, control 8.8±1.2, p=0.004) is listed as 18.8±2.2. For the same compound, in the data set on CD31+ vessels (skin flap after 14 total days of treatment, versus controls), the “neovascularization on hematoxylin and eosin-stained tissue” value is reported as “greater neovascularization”. In the data set with VEGF, the “tissue VEGF concentration” value worked out at 37.1 ± 3.4 pg/mL. Also, the “number of HIF-1α-stained nuclei per high-power field” value in the data set on HIF-1α is on record as 21.0±2.7.

The values are drawn from patent US20210244700A1, “COMPOSITIONS AND METHODS FOR PREVENTING AND/OR REDUCING ISCHEMIA AFTER SURGICAL INCISIONS” (Duke University, priority 2018, published 2021).
